# Assay results: patent US8735406B2, “8-oxodihydropurine derivative” (Dainippon Sumitomo Pharma Co., Ltd., priority 2009, dated 2014)
# Target: T1, FAAH (Rattus norvegicus, UniProt P97612)
# T1 construct: Preparation of Rat Brain Membranes Preparations (FAAH Enzyme Solution); from tissue; host or cells: rat cerebrum (brain membrane preparation)
# T1 sequence (P97612 1-579): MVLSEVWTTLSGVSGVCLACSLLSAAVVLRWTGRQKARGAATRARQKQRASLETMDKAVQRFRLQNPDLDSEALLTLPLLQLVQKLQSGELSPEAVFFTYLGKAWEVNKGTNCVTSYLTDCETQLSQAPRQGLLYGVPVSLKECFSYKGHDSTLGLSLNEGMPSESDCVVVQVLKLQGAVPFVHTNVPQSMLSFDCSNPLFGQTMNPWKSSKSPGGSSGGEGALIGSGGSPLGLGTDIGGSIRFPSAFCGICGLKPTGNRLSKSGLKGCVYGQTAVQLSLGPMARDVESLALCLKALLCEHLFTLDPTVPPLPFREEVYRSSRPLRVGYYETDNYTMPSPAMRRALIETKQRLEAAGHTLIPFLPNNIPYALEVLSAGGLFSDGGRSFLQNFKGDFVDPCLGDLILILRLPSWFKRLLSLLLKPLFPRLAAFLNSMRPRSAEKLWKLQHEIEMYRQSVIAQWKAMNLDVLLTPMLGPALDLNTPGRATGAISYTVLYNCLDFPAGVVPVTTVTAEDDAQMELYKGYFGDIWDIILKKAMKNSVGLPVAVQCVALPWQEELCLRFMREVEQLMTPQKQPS
# Experiment: Determination of FAAH inhibitory activity in rat (rat brain membrane preparations, [3H]-anandamide hydrolysis)
# Type: biochemical
# Details: rat brain membrane preparations; for inhibition at 0.1 µM: 100 nM test substance, read-out: FAAH Inhibition, Inhibition Rate at 100 nM; for IC50: test substance 0.1 nM to 1 μM, read-out: FAAH Inhibition IC50
# Procedure, shortened: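 Compounds tested from 0.1 nM to 1 μM to derive IC50 against FAAH hydrolysis in rat brain membrane preparations (100 μg/mL). A 10-min 37 °C preincubation was followed by 10 min with [3H]-anandamide (2 nM) mixed with 2 μM unlabelled anandamide. Radioactive ethanolamine was extracted into the water/methanol layer and counted.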
inhibition at 0.1 µM,IC50,Compound
105%,< 1 nM,"CN(CCC1CCCCC1)C(=O)n1c(=O)n(C)c2nc(-c3ccncc3)ncc21 [Example 223, N-(2-Cyclohexylethyl)-N,9-dimethyl-8-oxo-2-(pyridin-4-yl)-8,9-dihydro-7H-purine-7-carboxamide]"
91%,53 nM,"Cn1c(=O)n(C(=O)N2CCCC2)c2nc(-c3ccccc3)ncc21 [Example 224, 7-Methyl-2-phenyl-9-(pyrrolidin-1-ylcarbonyl)-7,9-dihydro-8H-purine-8-one]"
99%,27 nM,"Cn1c(=O)n(C(=O)N2CCCC2)c2nc(-c3cccc(F)c3)ncc21 [Example 226, 2-(3-Fluorophenyl)-7-methyl-9-(pyrrolidin-1-ylcarbonyl)-7,9-dihydro-8H-purine-8-one]"
97%,34 nM,"Cn1c(=O)n(C(=O)N2CCCC2)c2nc(-c3ccc(F)cc3)ncc21 [Example 227, 2-(4-Fluorophenyl)-7-methyl-9-(pyrrolidin-1-ylcarbonyl)-7,9-dihydro-8H-purine-8-one]"
99%,31 nM,"Cc1cccc(-c2ncc3c(n2)n(C(=O)N2CCCC2)c(=O)n3C)c1 [Example 228, 7-Methyl-2-(3-methylphenyl)-9-(pyrrolidin-1-ylcarbonyl)-7,9-dihydro-8H-purine-8-one]"
90%,53 nM,"Cc1ccc(-c2ncc3c(n2)n(C(=O)N2CCCC2)c(=O)n3C)cc1 [Example 229, 7-Methyl-2-(4-methylphenyl)-9-(pyrrolidin-1-ylcarbonyl)-7,9-dihydro-8H-purine-8-one]"
94%,44 nM,"COc1cccc(-c2ncc3c(n2)n(C(=O)N2CCCC2)c(=O)n3C)c1 [Example 230, 2-(3-Methoxyphenyl)-7-methyl-9-(pyrrolidin-1-ylcarbonyl)-7,9-dihydro-8H-purine-8-one]"
91%,51 nM,"COc1ccc(-c2ncc3c(n2)n(C(=O)N2CCCC2)c(=O)n3C)cc1 [Example 231, 2-(4-Methoxyphenyl)-7-methyl-9-(pyrrolidin-1-ylcarbonyl)-7,9-dihydro-8H-purine-8-one]"
101%,20 nM,"CCOc1cccc(-c2ncc3c(n2)n(C(=O)N2CCCC2)c(=O)n3C)c1 [Example 232, 2-(3-ethoxyphenyl)-7-methyl-9-(pyrrolidin-1-ylcarbonyl)-7,9-dihydro-8H-purine-8-one]"
97%,40 nM,"CCOc1ccc(-c2ncc3c(n2)n(C(=O)N2CCCC2)c(=O)n3C)cc1 [Example 233, 2-(4-Ethoxyphenyl)-7-methyl-9-(pyrrolidin-1-ylcarbonyl)-7,9-dihydro-8H-purine-8-one]"
100%,9 nM,"Cn1c(=O)n(C(=O)N2CCCC2)c2nc(-c3cccc(C(F)(F)F)c3)ncc21 [Example 234, 7-Methyl-9-(pyrrolidin-1-ylcarbonyl)-2-[3-(trifluoromethyl)phenyl]-7,9-dihydro-8H-purine-8-one]"
98%,39 nM,"Cn1c(=O)n(C(=O)N2CCCC2)c2nc(-c3ccc(C(F)(F)F)cc3)ncc21 [Example 235, 7-Methyl-9-(pyrrolidin-1-ylcarbonyl)-2-[4-(trifluoromethyl)phenyl]-7,9-dihydro-8H-purine-8-one]"
100%,6 nM,"Cn1c(=O)n(C(=O)N2CCCC2)c2nc(-c3cccc(OC(F)(F)F)c3)ncc21 [Example 236, 7-Methyl-9-(pyrrolidin-1-ylcarbonyl)-2-[3-(trifluoromethoxy)phenyl]-7,9-dihydro-8H-purine-8-one]"
98%,32 nM,"Cn1c(=O)n(C(=O)N2CCCC2)c2nc(-c3ccc(OC(F)(F)F)cc3)ncc21 [Example 237, 7-Methyl-9-(pyrrolidin-1-ylcarbonyl)-2-[4-(trifluoromethoxy)phenyl]-7,9-dihydro-8H-purine-8-one]"
84%,58 nM,"CC(=O)c1cccc(-c2ncc3c(n2)n(C(=O)N2CCCC2)c(=O)n3C)c1 [Example 238, 2-(3-Acetylphenyl)-7-methyl-9-(pyrrolidin-1-ylcarbonyl)-7,9-dihydro-8H-purine-8-one]"
89%,52 nM,"Cn1c(=O)n(C(=O)N2CCCC2)c2nc(-c3ccc(-c4ccccc4)cc3)ncc21 [Example 239, 2-(Biphenyl-4-yl)-7-methyl-9-(pyrrolidin-1-ylcarbonyl)-7,9-dihydro-8H-purine-8-one]"
94%,43 nM,"Cn1c(=O)n(C(=O)N2CCCC2)c2nc(/C=C/c3ccccc3)ncc21 [Example 241, 7-Methyl-2-[(E)-2-phenylethenyl]-9-(pyrrolidin-1-ylcarbonyl)-7,9-dihydro-8H-purine-8-one]"
89%,5 nM,"Cn1c(=O)n(C(=O)N2CCCC2)c2nc(/C=C/c3ccc(C(F)(F)F)cc3)ncc21 [Example 243, 7-methyl-9-(pyrrolidin-1-ylcarbonyl)-2-{(E)-2-[4-(trifluoromethyl)phenyl]ethenyl}-7,9-dihydro-8H-purine-8-one]"
86%,11 nM,"Cn1c(=O)n(C(=O)N2CCCC2)c2nc(/C=C/c3cccc(C(F)(F)F)c3)ncc21 [Example 244, 7-Methyl-9-(pyrrolidin-1-ylcarbonyl)-2-{(E)-2-[3-(trifluoromethyl)phenyl]ethenyl}-7,9-dihydro-8H-purine-8-one]"
80%,58 nM,"Cn1c(=O)n(C(=O)N2CCCC2)c2nc(/C=C/c3ccc(F)cc3)ncc21 [Example 245, 2-[(E)-2-(4-Fluorophenyl)ethenyl]-7-methyl-9-(pyrrolidin-1-ylcarbonyl)-7,9-dihydro-8H-purine-8-one]"
98%,23 nM,"Cn1c(=O)n(C(=O)N2CCCC2)c2nc(/C=C/c3cccc(F)c3)ncc21 [Example 246, 2-[(E)-2-(3-Fluorophenyl)ethenyl]-7-methyl-9-(pyrrolidin-1-ylcarbonyl)-7,9-dihydro-8H-purine-8-one]"
97%,39 nM,"COc1cccc(/C=C/c2ncc3c(n2)n(C(=O)N2CCCC2)c(=O)n3C)c1 [Example 247, 2-[(E)-2-(3-Methoxyphenyl)ethenyl]-7-methyl-9-(pyrrolidin-1-ylcarbonyl)-7,9-dihydro-8H-purine-8-one]"
33%,> 100 nM,Cn1c(=O)n(C(=O)N2CCCC2)c2nc(-c3cccnc3)ncc21 [Example 248]
55%,91 nM,Cn1c(=O)n(C(=O)N2CCCC2)c2nc(-c3ccc(F)nc3)ncc21 [Example 249]
78%,63 nM,"COc1ccc(-c2ncc3c(n2)n(C(=O)N2CCCC2)c(=O)n3C)cn1 [Example 250, 2-(6-Methoxypyridin-3-yl)-7-methyl-9-(pyrrolidin-1-ylcarbonyl)-7,9-dihydro-8H-purine-8-one]"
28%,> 100 nM,COc1cncc(-c2ncc3c(n2)n(C(=O)N2CCCC2)c(=O)n3C)c1 [Example 251]
40%,> 100 nM,Cn1c(=O)n(C(=O)N2CCCC2)c2nc(-c3ccncc3)ncc21 [Example 252]
